This is an account of results in ChEMBL document CHEMBL1123987, “Oral absorption of cephalosporin antibiotics. 3. Synthesis and biological properties of 7 alpha-methoxy-7 beta-(arylacetamido)-3-chloro-3-cephem-4-carboxylic acids” (1988).

Common to all, as to format: functional
For assay [1], the system named is Streptococcus pyogenes. In words: Minimum inhibitory concentration against Streptococcus pyogenes.
For assay [2], the system named is Staphylococcus aureus. In words: Minimum inhibitory concentration against Staphylococcus aureus.
The subject of assay [3] is Streptococcus pneumoniae. The experiment in a line: Minimum inhibitory concentration against Streptococcus pneumoniae.
Assay [4] relates to Haemophilus influenzae. The experiment in a line: Minimum inhibitory concentration against Haemophilus influenzae (beta-lactamase (+)).
In assay [5] the test system is Haemophilus influenzae. In words: Minimum inhibitory concentration against H influenzae(beta-lactamase (-)).
Assay [6] relates to Escherichia coli. The experiment in a line: Minimum inhibitory concentration against Escherichia coli.
For assay [7], the system named is Haemophilus influenzae. The experiment in a line: Minimum inhibitory concentration against H influenzae (beta-lactamase (-)).

≈ marks a conversion by molar mass, not a printed value. A value given as a limit tells only on which side of the number the result lay.

For `CO[C@@]1(NC(=O)Cc2csc(N)n2)C(=O)N2C(C(=O)O)=C(Cl)CSC21` (some centres not stated), the MIC in assay [1] was determined as 1 µg/mL (≈ 2.47 µM); in assay [2], 16 µg/mL (≈ 39.5 µM); in assay [3], 0.5 µg/mL (≈ 1.24 µM); in assay [4] it was 16 µg/mL (≈ 39.5 µM); in assay [5], 16 µg/mL (≈ 39.5 µM); in assay [6], 8 µg/mL (≈ 19.8 µM).

On to `O=C(COc1ccccc1)N[C@@H]1C(=O)N2C(C(=O)O)=C(Cl)CSC12` (some centres not stated), for which the MIC in assay [1] is 0.125 µg/mL (≈ 0.339 µM); in assay [7], 2 µg/mL (≈ 5.42 µM); in assay [2], 0.25 µg/mL (≈ 0.678 µM); in assay [3] it was 0.25 µg/mL (≈ 0.678 µM); in assay [4], 2 µg/mL (≈ 5.42 µM); in assay [6], 64 µg/mL (≈ 174 µM).

For the compound `Nc1nc(CC(=O)N[C@@H]2C(=O)N3C(C(=O)O)=C(Cl)CSC23)cs1` (some centres not stated), the MIC in assay [1] amounted to 0.125 µg/mL (≈ 0.333 µM); in assay [2] it was 1 µg/mL (≈ 2.67 µM); in assay [3] it was 0.5 µg/mL (≈ 1.33 µM); in assay [4], 1 µg/mL (≈ 2.67 µM); in assay [5] it was 1 µg/mL (≈ 2.67 µM); in assay [6], 1 µg/mL (≈ 2.67 µM).

Turning to `CO[C@@]1(NC(=O)Cc2cccs2)C(=O)N2C(C(=O)O)=C(Cl)CSC21` (some centres not stated), the MIC in assay [1] is 128 µg/mL (≈ 329 µM); in assay [2], over 128 µg/mL; in assay [3], 128 µg/mL (≈ 329 µM); in assay [4], over 128 µg/mL; in assay [5], over 128 µg/mL; in assay [6], over 128 µg/mL.

Consider `CO[C@@]1(NC(=O)COc2ccccc2)C(=O)N2C(C(=O)O)=C(Cl)CSC21` (some centres not stated), for which the MIC in assay [1] was 128 µg/mL (≈ 321 µM); in assay [2] it was over 128 µg/mL; in assay [3], 128 µg/mL (≈ 321 µM); in assay [4], over 128 µg/mL; in assay [5] it was over 128 µg/mL; in assay [6], over 128 µg/mL.

As for `O=C(Cc1cccs1)N[C@@H]1C(=O)N2C(C(=O)O)=C(Cl)CSC12` (some centres not stated), the MIC in assay [1] was found to be 0.125 µg/mL (≈ 0.348 µM); in assay [2], 0.5 µg/mL (≈ 1.39 µM); in assay [3], 0.125 µg/mL (≈ 0.348 µM); in assay [4] it was 1 µg/mL (≈ 2.79 µM); in assay [5] it was 1 µg/mL (≈ 2.79 µM); in assay [6], 4 µg/mL (≈ 11.1 µM).

As for `N[C@@H](C(=O)N[C@@H]1C(=O)N2C(C(=O)O)=C(Cl)CS[C@H]12)c1ccccc1.O` [CEFACLOR], the MIC in assay [1] was determined as 0.25 µg/mL; in assay [2] it was 1 µg/mL; in assay [3], 0.5 µg/mL; in assay [4], 2 µg/mL; in assay [5], 1 µg/mL; in assay [6] it was 1 µg/mL.
